Test results published in paper PMC8216263 (Pharmaceutical Biology, 2021).

Columns and labels:
OCT2 = biological target: T1, OCT2 (Homo sapiens, UniProt O15244); test: Inhibition of OCT2-mediated 14C-TEA uptake in S2-OCT2 cells; assay type: cell-based; settings: GA at 150 and 500 μg/L; PCA 100 to 1000 μg/L; p < 0.05 vs control
T1 construct: host or cells: S2 (second portion of proximal tubule) cells
T1 sequence (O15244 1-555): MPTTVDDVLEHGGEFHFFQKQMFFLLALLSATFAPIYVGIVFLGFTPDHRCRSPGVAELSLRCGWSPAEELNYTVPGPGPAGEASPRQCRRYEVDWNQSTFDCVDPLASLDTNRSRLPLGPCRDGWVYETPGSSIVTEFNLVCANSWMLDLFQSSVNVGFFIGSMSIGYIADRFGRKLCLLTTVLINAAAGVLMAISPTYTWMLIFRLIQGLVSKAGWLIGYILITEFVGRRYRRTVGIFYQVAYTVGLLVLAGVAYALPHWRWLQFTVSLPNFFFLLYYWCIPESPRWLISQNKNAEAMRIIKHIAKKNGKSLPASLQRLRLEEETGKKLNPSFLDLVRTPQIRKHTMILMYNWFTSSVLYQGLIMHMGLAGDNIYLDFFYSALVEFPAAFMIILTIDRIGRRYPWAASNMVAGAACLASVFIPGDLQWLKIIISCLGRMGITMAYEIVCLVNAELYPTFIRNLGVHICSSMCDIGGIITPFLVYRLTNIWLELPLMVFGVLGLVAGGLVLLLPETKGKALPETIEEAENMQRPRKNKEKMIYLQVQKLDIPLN
Procedure: Cells were cultured in DMEM supplemented with 10% FBS, 100 units/mL penicillin and 100 units/mL streptomycin. […] Cell culture flasks, 24-well cell culture plates, and transwell polycarbonate inserts (12 mm diameter, 0.4 μm pore size) were purchased from Corning Co-star Corp. (Bedford, MA).
The MDCK-OAT1, S2-OAT3, S2-OCT2 and HEK293-OATP1B1 cell lines were utilized in this study. […] Briefly, S2-OAT3, S2-OCT2 and S2-mock cells were trypsinized and uniformly suspended in the culture medium’s designated volume to provide a density of 2.0 × 10^5 cells/mL. A 1.0-mL aliquot of the cell suspension was added into each well of 24-well insert plates. HEK293-OATP1B1, MDCK-OAT1 and their mock cells were seeded in 24-well plates at a density of 1.5 × 10^5 cells/well. […] Three washes terminated the experiment with ice-cold DPBS buffer after removing the incubation buffer. Cells were lysed with 400 μL of […] sodium hydroxide solution. The cell lysate and 3.0 mL of aquasol-2 scintillation fluid were put into a scintillation flask. […] The final concentration of DMSO in the assay was less than 0.1%. All experiments were performed in triplicate.

OATP1B1 = biological target: T2, OATP1B1 (Homo sapiens, UniProt Q9Y6L6); test: Inhibition of OATP1B1-mediated 3H-ES uptake in HEK293-OATP1B1 cells; assay type: cell-based; settings: GA 50–5000 μg/L, PCA 10–1000 μg/L
T2 sequence (Q9Y6L6 1-691): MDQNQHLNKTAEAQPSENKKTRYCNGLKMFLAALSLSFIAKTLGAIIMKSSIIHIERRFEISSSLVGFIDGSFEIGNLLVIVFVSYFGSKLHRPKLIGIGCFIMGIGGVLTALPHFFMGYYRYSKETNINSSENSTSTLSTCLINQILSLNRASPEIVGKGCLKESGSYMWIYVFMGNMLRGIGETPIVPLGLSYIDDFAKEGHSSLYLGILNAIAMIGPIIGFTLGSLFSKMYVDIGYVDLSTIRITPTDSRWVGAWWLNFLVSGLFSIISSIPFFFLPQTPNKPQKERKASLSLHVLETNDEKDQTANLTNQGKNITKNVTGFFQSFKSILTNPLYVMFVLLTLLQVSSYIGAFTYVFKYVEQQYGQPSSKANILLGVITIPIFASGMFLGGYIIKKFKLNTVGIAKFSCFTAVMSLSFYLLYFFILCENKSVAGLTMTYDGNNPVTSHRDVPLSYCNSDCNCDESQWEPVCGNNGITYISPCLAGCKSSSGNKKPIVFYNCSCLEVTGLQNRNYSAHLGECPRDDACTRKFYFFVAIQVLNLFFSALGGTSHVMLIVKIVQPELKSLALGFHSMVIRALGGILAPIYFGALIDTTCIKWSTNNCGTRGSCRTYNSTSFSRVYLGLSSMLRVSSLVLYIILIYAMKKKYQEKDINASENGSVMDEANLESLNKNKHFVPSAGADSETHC
Description: The human multidrug resistance protein (MDR)1-transfected Madin–Darby Canine Kidney (MDCK) cells, human breast cancer resistance protein (BCRP)-transfected MDCK cells, human organic anion transporter (OAT)1-transfected MDCK cells, OAT3-transfected second portion of proximal tubule (S2) cells, human organic cation transporter (OCT)2-transfected S2 cells, human organic anion transporting polypeptide (OATP)1B1-transfected human embryonic kidney 293 (HEK293) cells and their MOCK cells were kindly provided by Japan Fuji Biomedical Co., Ltd. (Osaka, Japan). Cells were cultured in DMEM supplemented with 10% FBS, 100 units/mL penicillin and 100 […]. All cells were incubated in a humidified atmosphere of 95% air and 5% CO2 at 37 °C. A solution of 0.25% trypsin-EDTA was used to detach the cells from flasks. Cell culture flasks, 24-well cell culture plates, and transwell polycarbonate inserts (12 mm diameter, 0.4 μm pore size) were purchased from Corning Co-star Corp. (Bedford, MA).
Concentration-dependent inhibitions were conducted to study GA and PCA’s inhibitory effects on uptake transporters OAT1, OAT3, OCT2 and OATP1B1. The MDCK-OAT1, S2-OAT3, S2-OCT2 and HEK293-OATP1B1 cell lines were utilized in this study. […] The radioactive intensity was measured using a Tri-Carb 2910TR scintillator (PerkinElmer, Waltham, MA). […]

O=C(O)c1ccc(O)c(O)c1 [PCA, protocatechuic acid]
effect on OCT2-mediated uptake of 14C-TEA (OCT2): statistical decline
inhibitory effect on OATP1B1-mediated uptake of 3H-ES (OATP1B1): no statistical differences
